According to ChEMBL document CHEMBL3817795, “Identification and optimisation of a series of N-(4-anilino-2-pyridyl)acetamide activin receptor-like kinase 1 (ALK1) inhibitors” (Medchemcomm, 2016):

Key:
[1] = biological target: Lymphokine-activated killer T-cell-originated protein kinase (Homo sapiens) (UniProt Q96KB5); experiment: Inhibition of human recombinant full-length PBK at 1 uM after 30 mins
[2] = biological target: Inhibitor of nuclear factor kappa-B kinase subunit epsilon (Homo sapiens) (UniProt Q14164); experiment: Inhibition of human recombinant full-length IKKepsilon expressed in insect Sf21 cells at 1 uM using MBP as substrate after 30 mins
[3] = biological target: Serine/threonine-protein kinase PAK 4 (Homo sapiens) (UniProt O96013); experiment: Inhibition of human recombinant full-length PAK4 expressed in Escherichia coli at 1 uM using RRRLSFAEPG as substrate after 30 mins
[4] = biological target: Dual specificity tyrosine-phosphorylation-regulated kinase 1A (Homo sapiens) (UniProt Q13627); experiment: Inhibition of human recombinant DYRK1A (1 to 499 residues) expressed in Escherichia coli at 1 uM using KKISGRLSPIMTEQ as substrate after 30 mins
[5] = biological target: MAP/microtubule affinity-regulating kinase 3 (Homo sapiens) (UniProt P27448); experiment: Inhibition of human recombinant full-length MARK3 expressed in insect Sf21 cells at 1 uM using KKKVSRSGLYRSPSMPENLNRPR as substrate after 30 mins
[6] = biological target: Serine/threonine-protein kinase D1 (Homo sapiens) (UniProt Q15139); experiment: Inhibition of human recombinant full-length PKD1 expressed in insect Sf21 cells at 1 uM using KKLNRTLSVA as substrate after 30 mins
[7] = biological target: Calcium/calmodulin-dependent protein kinase type 1D (Homo sapiens) (UniProt Q8IU85); experiment: Inhibition of CAMK1d (unknown origin) at 1 uM
[8] = biological target: Mitogen-activated protein kinase 9 (Homo sapiens) (UniProt P45984); experiment: Inhibition of MAPK9 (unknown origin) at 1 uM
[9] = biological target: Aurora kinase B (Homo sapiens) (UniProt Q96GD4); experiment: Inhibition of human recombinant full-length AurKB expressed in insect Sf21 cells at 1 uM using LRRLSLGLRRLSLGLRRLSLGLRRLSLG as substrate after 30 mins
[10] = biological target: Ribosomal protein S6 kinase alpha-3 (Homo sapiens) (UniProt P51812); experiment: Inhibition of MAPKAPK1B (unknown origin) at 1 uM
[11] = biological target: Ribosomal protein S6 kinase alpha-5 (Homo sapiens) (UniProt O75582); experiment: Inhibition of human recombinant full-length MSK1 at 1 uM after 30 mins
[12] = biological target: Ribosomal protein S6 kinase beta-1 (Homo sapiens) (UniProt P23443); experiment: Inhibition of P70S6K (unknown origin) at 1 uM
[13] = biological target: Protein kinase C zeta type (Homo sapiens) (UniProt Q05513); experiment: Inhibition of PKCz (unknown origin) at 1 uM
[14] = biological target: Serine/threonine-protein kinase pim-3 (Homo sapiens) (UniProt Q86V86); experiment: Inhibition of human recombinant full-length PIM3 expressed in insect Sf21 cells at 1 uM using RSRHSSYPAGT as substrate after 30 mins
[15] = biological target: Homeodomain-interacting protein kinase 2 (Homo sapiens) (UniProt Q9H2X6); experiment: Inhibition of human recombinant HIPK2 (165 to 564 residues) expressed in Escherichia coli at 1 uM after 30 mins
[16] = biological target: Serine/threonine-protein kinase Chk2 (Homo sapiens) (UniProt O96017); experiment: Inhibition of human recombinant CHK2 (5 to 543 residues) expressed in Escherichia coli at 1 uM after 30 mins
[17] = biological target: Serine/threonine-protein kinase PLK1 (Homo sapiens) (UniProt P53350); experiment: Inhibition of human recombinant full-length PLK1 expressed in insect Sf21 cells at 1 uM using ISDELMDATFADQEAKKK as substrate after 30 mins
[18] = biological target: SRSF protein kinase 1 (Homo sapiens) (UniProt Q96SB4); experiment: Inhibition of human recombinant full-length SRPK1 expressed in Escherichia coli at 1 uM using RSRSRSRSRSRSRSR as substrate after 30 mins
[19] = biological target: Insulin-like growth factor 1 receptor (Homo sapiens) (UniProt P08069); experiment: Inhibition of IGF1R (unknown origin) at 1 uM
[20] = biological target: Serine/threonine-protein kinase Nek2 (Homo sapiens) (UniProt P51955); experiment: Inhibition of human recombinant full-length NEK2a expressed in insect Sf21 cells at 1 uM using RFRRSRRMI as substrate after 30 mins
[21] = biological target: Dual specificity tyrosine-phosphorylation-regulated kinase 3 (Homo sapiens) (UniProt O43781); experiment: Inhibition of human recombinant full-length DYRK3 expressed in Escherichia coli at 1 uM using KKISGRLSPIMTEQ as substrate after 30 mins
[22] = biological target: Insulin receptor (Homo sapiens) (UniProt P06213); experiment: Inhibition of INSR (unknown origin) at 1 uM
[23] = biological target: MAP kinase-activated protein kinase 5 (Homo sapiens) (UniProt Q8IW41); experiment: Inhibition of MAPKAPK5 (unknown origin) at 1 uM
[24] = biological target: Casein kinase II (Homo sapiens) (UniProt P67870+P68400+P19784); experiment: Inhibition of human recombinant full-length CK2 at 1 uM after 30 mins; assay type: protein-complex assay
[25] = biological target: Mitogen-activated protein kinase 14 (Homo sapiens) (UniProt Q16539); experiment: Inhibition of human recombinant full-length p38alpha at 1 uM after 30 mins
[26] = biological target: Protein kinase C alpha type (Homo sapiens) (UniProt P17252); experiment: Inhibition of human recombinant full-length PKCa expressed in insect Sf21 cells at 1 uM using histone H1 as substrate after 30 mins
[27] = species: Homo sapiens; experiment: Inhibition of human recombinant full-length PKA expressed in Escherichia coli at 1 uM using LRRASLG as substrate after 30 mins
[28] = biological target: Serine/threonine-protein kinase 26 (Homo sapiens) (UniProt Q9P289); experiment: Inhibition of MST4 (unknown origin) at 1 uM
[29] = biological target: MAP kinase-activated protein kinase 2 (Homo sapiens) (UniProt P49137); experiment: Inhibition of human recombinant […] MAPKAPK2 (46 to 400 residues) expressed in Escherichia coli at 1 uM after 30 mins
[30] = system: RAC-beta serine/threonine-protein kinase (Homo sapiens), P31751 [S474D]; experiment: Inhibition of human recombinant AKT2 S474D mutant (120 to 481 residues) expressed in insect Sf21 cells at 1 uM using GRPRTSSFAEGKK as substrate after 30 mins
[31] = biological target: Tyrosine-protein kinase SYK (Homo sapiens) (UniProt P43405); experiment: Inhibition of SYK (unknown origin) at 1 uM
[32] = biological target: Myosin light chain kinase, smooth muscle (Homo sapiens) (UniProt Q15746); experiment: Inhibition of human recombinant smMLCK (475 to 838 residues) expressed in Escherichia coli at 1 uM using KKRPQRATSNVFA as substrate after 30 mins
[33] = biological target: Eukaryotic elongation factor 2 kinase (Homo sapiens) (UniProt O00418); experiment: Inhibition of human recombinant full-length EF2K expressed in Escherichia coli at 1 uM using RKKFGESKTKTKEFL as substrate after 30 mins
[34] = biological target: Ephrin type-B receptor 3 (Homo sapiens) (UniProt P54753); experiment: Inhibition of EPHB3 (unknown origin) at 1 uM
[35] = biological target: Serine/threonine-protein kinase Nek6 (Homo sapiens) (UniProt Q9HC98); experiment: Inhibition of human recombinant NEK6 (8 to 313 residues) expressed in insect Sf21 cells at 1 uM using FLAKSFGSPNRAYKK as substrate after 30 mins
[36] = biological target: 3-phosphoinositide-dependent protein kinase 1 (Homo sapiens) (UniProt O15530); experiment: Inhibition of PDPK1 (unknown origin) at 1 uM

Chain of Eukaryotic elongation factor 2 kinase (Homo sapiens) (O00418 whole entry): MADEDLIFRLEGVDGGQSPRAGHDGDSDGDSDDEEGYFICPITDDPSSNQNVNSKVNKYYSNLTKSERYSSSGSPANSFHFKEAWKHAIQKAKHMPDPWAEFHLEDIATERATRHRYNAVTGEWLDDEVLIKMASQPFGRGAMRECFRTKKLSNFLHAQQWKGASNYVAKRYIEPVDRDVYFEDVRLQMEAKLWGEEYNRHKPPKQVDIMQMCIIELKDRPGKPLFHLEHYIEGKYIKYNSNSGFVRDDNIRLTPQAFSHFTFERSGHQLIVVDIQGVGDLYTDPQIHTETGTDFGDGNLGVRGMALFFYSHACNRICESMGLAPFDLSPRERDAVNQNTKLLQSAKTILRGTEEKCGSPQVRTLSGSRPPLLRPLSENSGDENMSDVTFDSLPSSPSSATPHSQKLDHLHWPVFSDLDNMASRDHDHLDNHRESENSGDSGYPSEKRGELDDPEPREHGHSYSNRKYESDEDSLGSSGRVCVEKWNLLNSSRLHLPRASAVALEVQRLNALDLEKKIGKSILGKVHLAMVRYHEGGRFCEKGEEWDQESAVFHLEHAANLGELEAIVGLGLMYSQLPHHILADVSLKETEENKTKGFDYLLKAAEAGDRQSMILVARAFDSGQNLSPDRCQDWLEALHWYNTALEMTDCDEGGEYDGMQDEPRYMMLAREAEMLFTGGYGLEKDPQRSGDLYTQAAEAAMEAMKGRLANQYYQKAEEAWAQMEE
Chain of Ribosomal protein S6 kinase alpha-5 (Homo sapiens) (O75582 whole entry, looked up): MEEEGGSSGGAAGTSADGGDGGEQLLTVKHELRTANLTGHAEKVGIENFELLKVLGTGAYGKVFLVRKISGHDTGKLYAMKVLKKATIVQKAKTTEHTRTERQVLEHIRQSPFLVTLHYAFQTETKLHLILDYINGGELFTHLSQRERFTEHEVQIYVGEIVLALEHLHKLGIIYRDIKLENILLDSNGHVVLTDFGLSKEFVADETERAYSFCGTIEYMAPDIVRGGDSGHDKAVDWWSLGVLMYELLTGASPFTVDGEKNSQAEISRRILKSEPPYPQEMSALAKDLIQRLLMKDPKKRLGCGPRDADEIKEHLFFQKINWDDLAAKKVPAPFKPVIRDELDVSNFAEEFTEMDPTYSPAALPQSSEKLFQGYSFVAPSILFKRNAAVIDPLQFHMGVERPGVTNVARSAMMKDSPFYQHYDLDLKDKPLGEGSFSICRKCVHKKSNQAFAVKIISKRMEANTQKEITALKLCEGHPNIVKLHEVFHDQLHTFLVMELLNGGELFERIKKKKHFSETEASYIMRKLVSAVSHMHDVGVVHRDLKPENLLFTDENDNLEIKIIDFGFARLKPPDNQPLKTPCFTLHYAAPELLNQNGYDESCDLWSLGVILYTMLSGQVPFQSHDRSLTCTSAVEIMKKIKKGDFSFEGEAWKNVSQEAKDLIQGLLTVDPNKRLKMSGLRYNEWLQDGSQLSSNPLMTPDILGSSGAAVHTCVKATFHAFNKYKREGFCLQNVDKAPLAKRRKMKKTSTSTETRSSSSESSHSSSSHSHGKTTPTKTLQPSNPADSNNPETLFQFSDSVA
Chain of Serine/threonine-protein kinase D1 (Homo sapiens) (Q15139 whole entry): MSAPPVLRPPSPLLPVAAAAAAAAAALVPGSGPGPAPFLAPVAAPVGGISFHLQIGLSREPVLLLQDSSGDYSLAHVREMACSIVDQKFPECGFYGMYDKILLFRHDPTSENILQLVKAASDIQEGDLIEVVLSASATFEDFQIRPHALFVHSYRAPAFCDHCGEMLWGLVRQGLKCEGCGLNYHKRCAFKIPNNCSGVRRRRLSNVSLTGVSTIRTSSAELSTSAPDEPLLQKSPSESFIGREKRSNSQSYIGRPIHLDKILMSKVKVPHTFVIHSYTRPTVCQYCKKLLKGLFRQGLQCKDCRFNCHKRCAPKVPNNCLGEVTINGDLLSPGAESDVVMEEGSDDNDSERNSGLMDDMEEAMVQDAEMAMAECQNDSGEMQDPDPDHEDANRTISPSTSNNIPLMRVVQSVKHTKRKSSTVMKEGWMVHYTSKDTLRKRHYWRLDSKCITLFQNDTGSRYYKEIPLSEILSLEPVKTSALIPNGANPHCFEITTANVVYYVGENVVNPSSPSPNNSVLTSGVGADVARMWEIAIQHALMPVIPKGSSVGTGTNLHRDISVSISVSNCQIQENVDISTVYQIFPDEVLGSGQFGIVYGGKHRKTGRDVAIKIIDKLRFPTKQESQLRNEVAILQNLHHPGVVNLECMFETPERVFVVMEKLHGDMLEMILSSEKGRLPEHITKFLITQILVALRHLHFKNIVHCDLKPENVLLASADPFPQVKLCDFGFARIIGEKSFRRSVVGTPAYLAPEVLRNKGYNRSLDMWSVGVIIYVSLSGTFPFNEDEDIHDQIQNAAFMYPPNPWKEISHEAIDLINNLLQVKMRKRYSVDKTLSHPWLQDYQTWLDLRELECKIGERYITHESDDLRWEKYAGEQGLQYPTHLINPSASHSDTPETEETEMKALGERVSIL
Chain of Serine/threonine-protein kinase Chk2 (Homo sapiens) (O96017 whole entry, the tested form may be a part): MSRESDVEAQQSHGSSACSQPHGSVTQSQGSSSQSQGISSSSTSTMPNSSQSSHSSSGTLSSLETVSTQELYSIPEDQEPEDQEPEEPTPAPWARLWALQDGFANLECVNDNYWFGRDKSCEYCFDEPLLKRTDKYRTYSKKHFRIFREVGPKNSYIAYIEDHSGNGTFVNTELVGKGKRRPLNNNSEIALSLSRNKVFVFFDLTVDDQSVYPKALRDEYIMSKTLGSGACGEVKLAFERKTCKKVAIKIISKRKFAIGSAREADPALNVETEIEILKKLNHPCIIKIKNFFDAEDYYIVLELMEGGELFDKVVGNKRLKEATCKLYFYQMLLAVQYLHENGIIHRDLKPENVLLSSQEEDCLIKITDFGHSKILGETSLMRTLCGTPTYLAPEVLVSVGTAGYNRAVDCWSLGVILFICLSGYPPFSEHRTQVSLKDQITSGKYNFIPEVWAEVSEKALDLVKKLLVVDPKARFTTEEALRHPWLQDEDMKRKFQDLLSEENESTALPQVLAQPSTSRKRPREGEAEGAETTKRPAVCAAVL
Chain of Myosin light chain kinase, smooth muscle (Homo sapiens) (Q15746 whole entry, the tested form may be a part): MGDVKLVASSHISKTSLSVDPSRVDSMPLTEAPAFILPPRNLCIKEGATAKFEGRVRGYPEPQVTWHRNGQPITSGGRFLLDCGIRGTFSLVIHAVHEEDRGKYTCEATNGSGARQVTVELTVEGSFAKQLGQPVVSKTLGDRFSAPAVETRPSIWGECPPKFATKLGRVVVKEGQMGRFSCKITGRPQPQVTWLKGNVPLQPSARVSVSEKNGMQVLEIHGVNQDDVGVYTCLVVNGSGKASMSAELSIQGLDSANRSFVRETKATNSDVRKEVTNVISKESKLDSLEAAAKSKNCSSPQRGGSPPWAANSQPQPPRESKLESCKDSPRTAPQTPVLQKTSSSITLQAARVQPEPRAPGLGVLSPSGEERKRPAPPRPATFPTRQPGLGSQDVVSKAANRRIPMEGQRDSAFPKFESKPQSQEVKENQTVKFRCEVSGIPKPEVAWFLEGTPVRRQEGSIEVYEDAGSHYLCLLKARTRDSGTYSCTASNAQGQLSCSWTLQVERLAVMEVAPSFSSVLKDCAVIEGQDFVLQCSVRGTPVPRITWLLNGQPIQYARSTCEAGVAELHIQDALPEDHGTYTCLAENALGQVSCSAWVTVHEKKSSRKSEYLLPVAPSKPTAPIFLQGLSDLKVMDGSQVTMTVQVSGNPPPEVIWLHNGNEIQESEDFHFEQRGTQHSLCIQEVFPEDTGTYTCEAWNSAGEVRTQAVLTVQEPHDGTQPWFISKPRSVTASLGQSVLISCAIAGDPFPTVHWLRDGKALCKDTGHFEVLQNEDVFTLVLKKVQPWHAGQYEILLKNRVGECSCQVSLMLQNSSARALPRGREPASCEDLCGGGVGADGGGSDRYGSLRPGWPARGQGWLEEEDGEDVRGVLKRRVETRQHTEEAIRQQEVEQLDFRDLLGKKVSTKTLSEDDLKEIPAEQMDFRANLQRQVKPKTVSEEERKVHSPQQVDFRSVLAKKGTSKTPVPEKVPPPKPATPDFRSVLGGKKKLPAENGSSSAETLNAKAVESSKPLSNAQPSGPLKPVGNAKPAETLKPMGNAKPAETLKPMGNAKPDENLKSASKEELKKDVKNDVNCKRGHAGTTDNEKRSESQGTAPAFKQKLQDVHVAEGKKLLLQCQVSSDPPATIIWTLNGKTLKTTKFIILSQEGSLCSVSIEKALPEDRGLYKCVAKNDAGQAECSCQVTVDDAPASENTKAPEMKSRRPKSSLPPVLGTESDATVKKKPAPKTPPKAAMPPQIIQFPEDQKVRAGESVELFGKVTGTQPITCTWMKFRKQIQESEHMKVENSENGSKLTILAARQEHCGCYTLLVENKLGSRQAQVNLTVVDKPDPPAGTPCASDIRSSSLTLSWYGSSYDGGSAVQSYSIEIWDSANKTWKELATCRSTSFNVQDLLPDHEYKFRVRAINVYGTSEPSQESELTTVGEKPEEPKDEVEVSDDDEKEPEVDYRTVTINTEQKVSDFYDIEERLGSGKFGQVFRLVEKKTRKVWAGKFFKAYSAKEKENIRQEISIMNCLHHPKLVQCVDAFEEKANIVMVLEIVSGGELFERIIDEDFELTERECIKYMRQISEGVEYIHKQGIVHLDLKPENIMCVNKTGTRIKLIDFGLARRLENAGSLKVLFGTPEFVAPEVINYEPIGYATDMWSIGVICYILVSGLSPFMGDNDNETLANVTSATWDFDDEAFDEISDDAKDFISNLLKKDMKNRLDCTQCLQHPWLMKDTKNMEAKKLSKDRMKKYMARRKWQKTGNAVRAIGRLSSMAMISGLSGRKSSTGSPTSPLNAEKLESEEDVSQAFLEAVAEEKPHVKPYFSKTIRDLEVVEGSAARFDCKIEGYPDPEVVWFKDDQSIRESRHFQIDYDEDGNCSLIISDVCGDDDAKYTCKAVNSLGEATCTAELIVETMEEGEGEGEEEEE

- inhibition [2]: < 80%
- inhibition [3]: < 80%
- inhibition [4]: < 80%
- inhibition [5]: < 80%
- inhibition [6]: < 80%
- inhibition [7]: < 80%
- inhibition [8]: < 80%
- inhibition [9]: < 80%
- inhibition [10]: < 80%
- inhibition [11]: < 80%
- inhibition [12]: < 80%
- inhibition [13]: < 80%
- inhibition [14]: < 80%
- inhibition [15]: < 80%
- inhibition [16]: < 80%
- inhibition [17]: < 80%
- inhibition [18]: < 80%
- inhibition [19]: < 80%
- inhibition [20]: < 80%
- inhibition [21]: < 80%
- inhibition [22]: < 80%
- inhibition [23]: < 80%
- inhibition [24]: < 80%
- inhibition [25]: < 80%
- inhibition [26]: < 80%
- inhibition [27]: < 80%
- inhibition [28]: < 80%
- inhibition [29]: < 80%
- inhibition [30]: < 80%
- inhibition [31]: < 80%
- inhibition [32]: < 80%
- inhibition [33]: < 80%
- inhibition [34]: < 80%
- inhibition [35]: < 80%
- inhibition [36]: < 80%
SMILES: O=C(Nc1cc(Nc2c(Cl)cnc3c2OCO3)ccn1)C1CC1
- inhibition [1]: < 80%
